Earlier results in patent US20230049319A1, “CANNABINOID-COMPRISING COSMETIC COMPOSITIONS” (THIS WORKS PRODUCTS LIMITED, priority 2020, published 2023).

How the values were obtained:
[1] = system: anxiety; conditions: in vivo
[2] = system: chronic inflammation and pain; conditions: mice and rats
[3] = in vivo

C=C[C@@](C)(O)CCC=C(C)C [S-(+)-linalool]
reducing anxiety, compared with trazodone hydrochloride [1]: as effective as the trazodone hydrochloride

C=C(C)[C@@H]1CCC(C)=C[C@H]1c1c(O)cc(CCCCC)cc1O [CBD, cannabidiol]
chronic inflammation and pain [2]: substantially reduce

C=C[C@](C)(O)CCC=C(C)C [R-(−)-linalool]
reducing anxiety, compared with trazodone hydrochloride [1]: as effective as the trazodone hydrochloride

C=CC(C)(O)CCC=C(C)C (stereo not shown) [Linalool]
dose shown to be safe [3]: ≤ 120 mg
